According to the supplement of paper PMC10307832:

Columns and labels:
Assay in all cases: relative viability (nuclei count vs DMSO), 5 days (fraction); higher = more cells survive
[1] = compound: CNC(=O)c1ccccc1Sc1ccc2c(/C=C/c3ccccn3)n[nH]c2c1 [Axitinib] + CS(=O)(=O)CCNCc1ccc(-c2ccc3ncnc(Nc4ccc(OCc5cccc(F)c5)c(Cl)c4)c3c2)o1 [Lapatinib] (partner 2 µM)
Summary of the method: (§1)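 Lung cancer cell lines, seeded in 1536-well plates, were treated the following day by pin tool with a single drug or with five library-drug doses (not always all listed) in √10 steps on top of a fixed anchor-drug dose. Cells were fixed and nuclei stained in one step after 5 days, and nuclei were counted. Relative viability is the nuclei count for treated wells divided by that for vehicle wells, reported as medians of duplicate plates.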

[2] = compound: Nc1nc(Nc2ccc3c(c2)CC[C@@H](N2CCCC2)CC3)nn1-c1cc2c(nn1)-c1ccccc1CCC2 [Bemcentinib] + O=C(c1cc(Cc2n[nH]c(=O)c3ccccc23)ccc1F)N1CCN(C(=O)C2CC2)CC1 [Olaparib] (partner 8 µM)
Summary of the method: as §1

[3] = compound: CNC(=O)c1ccccc1Sc1ccc2c(/C=C/c3ccccn3)n[nH]c2c1 [Axitinib] + CC(=O)c1c(C)c2cnc(Nc3ccc(N4CCNCC4)cn3)nc2n(C2CCCC2)c1=O [Palbociclib] (partner 0.5 µM)
Summary of the method: as §1

[4] = compound: CC1=CC=C(C=C1)C(=O)CN2C3=C(CCCC3)SC2=N [Pifithrin_alpha] + Nc1ncn([C@H]2C[C@H](O)[C@@H](CO)O2)c(=O)n1 [Decitabine] (partner 2 µM)
Summary of the method: as §1

## NCI-H650
[1]; first compound 0.005 µM
  relative viability: 0.792
[1]; first compound 0.01581 µM
  relative viability: 0.837
[1]; first compound 0.05 µM
  relative viability: 1.08
[1]; first compound 0.1581 µM
  relative viability: 0.919
[1]; first compound 0.5 µM
  relative viability: 0.932
[2]; first compound 0.04 µM
  relative viability: 0.402
[2]; first compound 0.1265 µM
  relative viability: 0.424
[2]; first compound 0.4 µM
  relative viability: 0.42
[2]; first compound 1.265 µM
  relative viability: 0.424
[2]; first compound 4 µM
  relative viability: 0.36
[3]; first compound 0.005 µM
  relative viability: 0.327
[3]; first compound 0.01581 µM
  relative viability: 0.342
[3]; first compound 0.05 µM
  relative viability: 0.312
[3]; first compound 0.1581 µM
  relative viability: 0.321
[3]; first compound 0.5 µM
  relative viability: 0.325
[4]; first compound 3.162 µM
  relative viability: 0.323
[4]; first compound 10 µM
  relative viability: 0.335
[4]; first compound 31.62 µM
  relative viability: 0.235
[4]; first compound 100 µM
  relative viability: 0.275
